Molecular target: T1, guanylate cyclase (Oryctolagus cuniculus, UniProt G1TXB5)
T1 sequence (G1TXB5 28-1056): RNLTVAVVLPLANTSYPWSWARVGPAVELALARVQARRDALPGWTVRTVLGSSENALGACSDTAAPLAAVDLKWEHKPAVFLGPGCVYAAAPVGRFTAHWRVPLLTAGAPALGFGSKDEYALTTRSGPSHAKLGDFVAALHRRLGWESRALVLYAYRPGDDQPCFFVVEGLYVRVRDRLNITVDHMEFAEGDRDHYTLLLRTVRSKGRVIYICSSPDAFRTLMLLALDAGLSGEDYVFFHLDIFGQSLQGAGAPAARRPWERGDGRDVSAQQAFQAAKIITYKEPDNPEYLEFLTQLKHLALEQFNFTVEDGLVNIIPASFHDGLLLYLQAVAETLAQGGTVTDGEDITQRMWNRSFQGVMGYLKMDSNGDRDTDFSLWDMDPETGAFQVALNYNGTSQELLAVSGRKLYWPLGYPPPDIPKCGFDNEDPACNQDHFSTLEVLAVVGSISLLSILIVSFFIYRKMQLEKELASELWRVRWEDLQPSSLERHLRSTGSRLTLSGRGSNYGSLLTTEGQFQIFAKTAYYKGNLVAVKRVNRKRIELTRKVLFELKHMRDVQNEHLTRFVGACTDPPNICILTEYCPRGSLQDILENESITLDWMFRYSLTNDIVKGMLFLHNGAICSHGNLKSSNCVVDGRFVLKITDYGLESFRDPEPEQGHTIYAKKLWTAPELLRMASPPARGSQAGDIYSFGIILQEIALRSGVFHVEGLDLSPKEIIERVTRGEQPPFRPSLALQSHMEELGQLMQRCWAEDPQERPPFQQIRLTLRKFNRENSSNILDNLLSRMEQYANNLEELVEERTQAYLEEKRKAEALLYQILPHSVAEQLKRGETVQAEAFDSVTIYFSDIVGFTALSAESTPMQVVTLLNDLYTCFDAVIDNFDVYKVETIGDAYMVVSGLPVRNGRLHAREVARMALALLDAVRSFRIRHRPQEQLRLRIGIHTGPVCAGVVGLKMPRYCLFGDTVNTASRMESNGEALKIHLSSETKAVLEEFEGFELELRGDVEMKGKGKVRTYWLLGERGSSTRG
Assay: Atriopeptin-activated guanylate cyclase in ciliary process membrane (P1) fractions
Format: biochemical, rabbit
Parameters: tissues were homogenized (10 mg wet weight per milliliter); from tissue; host or cells: rabbit cerebral microvessels, choroid plexus, kidney, ciliary process, pia-arachnoid, cerebellum; 100,000 g P1 pellet
Settings: mean ± range of duplicate determinations
Description: Ciliary process tips were obtained from male, 3-4 kg, New Zealand white rabbits, immediately following sacrifice with an overdose of ether, as described in Nathanson, Invest. Ophthal. Vis. Sci., 21:7981 (1982). The tissue was minced and homogenized (10 mg/ml) by hand in a glass-glass homogenizer in a buffer consisting of 50 mM Tris HCl, pH 8.0; 1mM EDTA, and 250mM sucrose. The homogenate was diluted 30-fold with buffer and centrifuged at 100,000 x g, to obtain a P1 fraction. The pellet was rehomogenized in the original volume and left on ice until use. P1 fractions were also prepared from wedges of rabbit kidney taken from the same animals. In some experiments, P1 fractions were prepared from iris and from ciliary body, as described in Nathanson, Proc. Natl. Acad. Sci. USA, 77:7420 (1980). Briefly, iris was removed from its attachment to the ciliary body, cleaned of adhering ciliary process tissue, washed, and homogenized as above. The ciliary muscle was cleaned of most remaining ciliary process tissue, freed from the underlying sclera by blunt and sharp dissection, and then washed and homogenized.
Atriopeptin-activated guanylate cyclase activity was measured as the rate of conversion of GTP to cyclic GMP. […]
For RIA, each tube contained (in 0.5ml), 50mM sodium acetate buffer (pH 6.2), 2mM EDTA, 1mg/ml bovine serum albumin, 0.1 ml of sample (or diluted sample), 8,000-15,000 cpm (about 5 fmole) of ¹²⁵I succinyl cyclic GMP tyrosine methyl ester, and antibody to bind 25-35% of the label. […] Activation constants (Ka) were determined from dose-response curves utilizing 12-14 data points (6-7 concentrations of hormone, in duplicate), each point representing the mean of triplicate RIA determinations.
Atriopeptin-activated guanylate cyclase activity was measured, as described in Example 5, in membranes from rabbit kidney and ciliary process prepared as in Example 4. […]

## Ser-Leu-Arg-Arg-atriopeptin III (APIII) [rANP 1-28]
  Vmax Stimulation (%) of Guanylate Cyclase Ciliary Process: 124 ± 5%

## rANP 13-28 (DRIGAQSGLGCNSFRY; Atrial natriuretic peptide; UniProt P01161 135-150, looked up, fragment)
  Vmax Stimulation (%) of Guanylate Cyclase Ciliary Process: 51 ± 5%
